Read-outs that look alike come from different tables or passages of the source.
Key:
Assay type in all cases: binding
integrin αvβ3 [1] = target: T1, integrin αvβ3 (Homo sapiens, UniProt P05106+P06756); details: for IC50: IC50 (competitive displacement), day 7, competitor [^125I]I-echistatin
integrin αvβ3 [2] = target: T1, integrin αvβ3
integrin αvβ3 [3] = target: T1, integrin αvβ3; remark: listed apart in the source

For `N=C(N)NCCC[C@@H]1NC(=O)[C@H](CCCCNC(=O)CCOCCOCCOCCOCCOCCOCCNC(=O)CC[C@H](C(=O)O)N2CCN(CC(=O)O)CCN(CC(=O)O)CC2)NC(=O)[C@@H](Cc2ccccc2)NC(=O)[C@H](CC(=O)O)NC(=O)CNC1=O` [NODAGA-PEG5-c(RGDfK), NODAGA-PEG5-c(Arg-Gly-Asp-D-Phe-Lys)], the IC50 (integrin αvβ3 [1]; U87MG spheroids generated with collagen-1 supplementation) was 20.5 ± 4.41 µM, the IC50 (integrin αvβ3 [1]; U87MG spheroids generated without supplementation) was 16.5 ± 2.88 µM and the “reduced interaction in 3D spheroids compared to 2D monolayer (fold)” value (integrin αvβ3 [1]; IC50 in 3D U87MG spheroids vs 2D monolayer cell system) was 5–7 fold. The IC50 (integrin αvβ3 [2]) was 3.08 ± 0.12 µM, the IC50 (integrin αvβ3 [3]) was 10.4 ± 0.89 µM and the “change of IC50 value by BME” value (integrin αvβ3 [3]; 2D monolayer with BME vs without BME supplementation) was “triplication”.
